Literature values as cited in patent US12187744B2, “IRAK4 degraders and synthesis thereof” (Kymera Therapeutics, Inc., priority 2021, dated 2025).

Key:
[1] = per ICH M7(R1) guidance
[2] = in vivo

Compound | ICH M7(R1) Class [1] | results in rodent carcinogenicity assays [2]
CC(C)Cl [Isopropyl chloride] | 2 | –
CI [Methyl iodide] | – | positive
